Data reported in ChEMBL document CHEMBL1125871, “Inhibitors of cholesterol biosynthesis. 4. trans-6-[2-(substituted-quinolinyl)ethenyl/ethyl]tetrahydro-4-hydroxy-2 H-pyran-2-ones, a novel series of HMG-CoA reductase inhibitors” (J Med Chem, 1991).

Tests used:
Rattus norvegicus [1] = organism: Rattus norvegicus; experiment: Compound was tested for its Cholesterol Synthesis Inhibition ability in rats.; assay type: functional, organism-based
Rattus norvegicus [2] = organism: Rattus norvegicus; experiment: (§1) Compound was tested for its relative Cholesterol Synthesis Inhibition as compared to compactin in rats.; assay type: functional
Rattus norvegicus [3] = organism: Rattus norvegicus; experiment: Compound was evaluated for the percentage of acute inhibition of cholesterol synthesis (AICS) in male rats through peroral rout.; assay type: functional; parameters: concentration or dose not given beside the values
[4] = biological target: T1, 3-hydroxy-3-methylglutaryl-coenzyme A reductase (Rattus norvegicus, UniProt P51639); experiment: Compound was evaluated for the inhibition of HMG-CoA reductase (COR) in rats.
T1 sequence (P51639 whole entry): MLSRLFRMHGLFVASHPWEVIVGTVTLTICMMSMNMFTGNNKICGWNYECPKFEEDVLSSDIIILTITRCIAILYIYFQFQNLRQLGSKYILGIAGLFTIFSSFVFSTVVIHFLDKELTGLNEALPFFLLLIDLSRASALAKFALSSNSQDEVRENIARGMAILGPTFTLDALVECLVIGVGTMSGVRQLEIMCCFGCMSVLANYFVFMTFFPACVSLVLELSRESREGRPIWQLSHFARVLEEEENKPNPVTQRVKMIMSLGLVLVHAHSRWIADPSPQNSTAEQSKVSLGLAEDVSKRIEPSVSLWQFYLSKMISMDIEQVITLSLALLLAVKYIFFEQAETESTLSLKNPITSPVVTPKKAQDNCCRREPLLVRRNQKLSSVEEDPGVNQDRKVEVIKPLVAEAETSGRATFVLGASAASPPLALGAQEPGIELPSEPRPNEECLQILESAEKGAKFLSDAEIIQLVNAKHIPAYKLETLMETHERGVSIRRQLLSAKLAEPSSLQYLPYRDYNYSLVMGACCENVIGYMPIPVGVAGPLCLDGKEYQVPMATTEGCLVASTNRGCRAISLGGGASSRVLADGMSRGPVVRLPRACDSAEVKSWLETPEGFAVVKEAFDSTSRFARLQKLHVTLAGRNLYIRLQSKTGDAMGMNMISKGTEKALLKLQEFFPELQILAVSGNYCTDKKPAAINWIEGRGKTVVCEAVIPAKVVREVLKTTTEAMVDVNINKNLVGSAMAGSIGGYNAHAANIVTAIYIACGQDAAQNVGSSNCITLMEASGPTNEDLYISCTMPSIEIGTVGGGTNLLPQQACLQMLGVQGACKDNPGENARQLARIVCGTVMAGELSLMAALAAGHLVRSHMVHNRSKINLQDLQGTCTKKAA

[5] = as §1; assay type: functional

SMILES | IC50 (Rattus norvegicus [1]) [nM] | IC50 [4] [nM] | Relative inhibition (Rattus norvegicus [2]) | Inhibition (Rattus norvegicus [3]) [%] | Relative inhibition [5]
CC(C)c1nc2ccc(F)cc2c(-c2ccc(F)cc2)c1/C=C/[C@@H]1C[C@@H](O)CC(=O)O1 (stereo in doubt; 8d) | 50 | 200 | 77.6 | 68 | 
Cc1nc2ccc(Cl)cc2c(-c2ccc(F)cc2)c1/C=C/[C@@H]1C[C@@H](O)CC(=O)O1 | 400 | 720 | 6.3 | 18 | 
CC(C)c1nc2ccc(F)cc2c(-c2ccc(F)cc2)c1/C=C/[C@@H]1C[C@@H](O)CC(=O)O1 (stereo in doubt; 17) |  |  |  | 69 | 
CN(C)c1nc2ccccc2c(-c2ccc(F)cc2)c1/C=C/[C@@H]1C[C@@H](O)CC(=O)O1 | 47 | 350 | 13.2 | 52 | 
CC(C)c1nc2ccccc2c(-c2ccc(F)cc2)c1/C=C/[C@@H]1C[C@@H](O)CC(=O)O1 | 42 | 32 | 75.8 | 70 | 
CC(C)c1nc2ccc(Cl)cc2c(-c2ccc(F)cc2)c1/C=C/[C@@H]1C[C@@H](O)CC(=O)O1 | 32 | 25 | 100 | 61 | 
CC(C)c1c(/C=C/[C@@H]2C[C@@H](O)CC(=O)O2)c(-c2ccc(F)cc2)c2cc(F)ccc2[n+]1[O-] | 18 | 79 |  | 47 | 112

Now from value to compound, other results behind:

IC50 (Rattus norvegicus [1]) [nM] | IC50 [4] [nM] | SMILES | Relative inhibition (Rattus norvegicus [2]) | Inhibition (Rattus norvegicus [3]) [%] | Relative inhibition [5]
> 1000 |  | CC(C)c1nc2ccccc2c(-c2ccc(F)cc2)c1CC[C@@H]1C[C@@H](O)CC(=O)O1 | <1 |  | 
30 |  | CC[C@H](C)C(=O)O[C@H]1CCC=C2C=C[C@H](C)[C@H](CC[C@@H]3C[C@@H](O)CC(=O)O3)[C@H]21 [MEVASTATIN] |  | 36 | 
> 1000 |  | Cc1cnc2ccccc2c1/C=C/[C@@H]1C[C@@H](O)CC(=O)O1 | <1 | 42 | 
13 | 53 | COc1ccc2nc(C(C)C)c(/C=C/[C@@H]3C[C@@H](O)CC(=O)O3)c(-c3ccc(F)cc3)c2c1 | 100 | 60 | 
25 | 28 | CC[C@H](C)C(=O)O[C@H]1C[C@@H](C)C=C2C=C[C@H](C)[C@H](CC[C@@H]3C[C@@H](O)CC(=O)O3)[C@H]21 [LOVASTATIN] | 118 | 72 | 
